The structures appear in SMILES notation.

In one assay the test system is γ-secretase. The assay is described as follows: Cell-Based γ-Secretase Assay with ELISA Readout. Conditions: comparison of the Table 7 potencies of separated enantiomers. Also on record: species or system human. The procedure: The ability of compounds to modulate production of amyloid beta protein Aβ(1-42) was determined using human WT-APP overexpressing CHO cells. Cells were plated at 22,000 cells/100 μL well in 96 well tissue culture treated, clear plates (Falcon) in DMEM/F12 based medium and incubated for 24 h at 37° C. Compounds for testing were diluted in 100% DMSO to achieve an eleven point, half log, dose response for IC50 determinations. Compounds were added in fresh medium to achieve 1% final DMSO. Appropriate vehicle or inhibitor controls were added into control wells individually to obtain minimum or maximum inhibition values, respectively, for the assay signal window before the plates were incubated for ˜24 h at 37° C. This procedure produces conditioned media in each well, which is tested for Aβ(1-42) levels in the ELISA detection step described next. The remaining cell cultures in each well are also tested for cell toxicity as described below.
Coating of ELISA assay plates was initiated by addition of 50 μL/well of an in-house Aβ(1-42) specific antibody (3 μg/mL) in 0.1 M NaHCO3 (pH 9.0) into black 384-well Maxisorp® plates (Nunc); incubation was carried out overnight at 4° C. The capture antibody was then aspirated from the ELISA assay plates and plates were washed either 2×100 μL with a Matrical Squirt plate washer, or 3×90 μL with a Thermo Combi, using Wash Buffer (Dulbecco's PBS, 0.05% Tween 20). 90 μL/well of Blocking Buffer (Dulbecco's PBS, 1.0% BSA (Sigma A7030) was then added to plates. Ambient temperature incubation was allowed to proceed for a minimum of 2 h. Blocking Buffer was then removed and 20 μL/well Assay Buffer (Dulbecco's PBS, 1.0% BSA (Sigma A7030), 0.05% Tween 20) was then added. At this point, 35 μL (40 μL prior to August, 2012) (in duplicate) of experimental conditioned media (described above) was transferred into wells of the blocked ELISA plates containing the capture antibody, followed by overnight incubation at 4° C. Cell toxicity was also measured in the corresponding remaining cells after removal of the conditioned media for the Aβ(1-42) assay by a colorimetric cell proliferation assay (CellTiter 96® AQueous One Solution Cell Proliferation Assay, Promega) according to the manufacturer's instructions.
After overnight incubation of the ELISA assay plates at 4° C., unbound Aβ peptides were removed via either 2×100 μL washes with a Matrical Squirt plate washer, or 3×90 μL washes with a Thermo Combi, using Wash Buffer. Europium (Eu) labeled (custom labeled, PerkinElmer) Aβ(1-16) 6e10 Monoclonal Antibody (Covance #SIG-39320) was added, (50 μL/well Eu-6e10@1:10,000, 20 uM EDTA) in Assay Buffer. Incubation at ambient temperature for a minimum of 2 h was followed by either 2×100 μL washes with a Matrical Squirt plate washer, or 3×90 μL washes with a Thermo Combi, using Wash Buffer, before 30 μL/well of Delfia Enhancement Solution (PerkinElmer) was added. Following 30 to 60 min ambient temperature incubation, the plates were read on an EnVision plate reader (PerkinElmer) using standard DELFIA TRF settings. Data analysis including inhibitory IC50 determination was performed using nonlinear regression fit analysis (in-house software) and the appropriate plate mean values for the maximum and minimum inhibition controls.
In general terms: ELISA stands for enzyme-linked immunosorbent assay.
Take `Cc1cn(-c2ccc3n(c2=O)CCN(C[C@@]24C[C@]2(C)Oc2ccc(OC(F)(F)F)cc24)C3=O)cn1` (single isomer, unassigned) [Example 2]: the “potency compared with its enantiomer” value is on record as “more potent than its enantiomer 3”.

The assay is the same for the next values; noted with them: production of Aβ(1-42) in human WT-APP overexpressing CHO cells, ~24 h; footnote a = single determination, footnote b = geometric mean of ≧5 determinations; read-out: Aβ 42B IC50 (nM) Geometric mean of 2-4 determinations (unless otherwise indicated).
The IC50 is the concentration at which inhibition is half-maximal. For the molecule `Cc1cn(-c2ccc3n(c2=O)CCN(C[C@]24C[C@@]2(C)Oc2ccc(C(F)(F)F)cc24)C3=O)cn1` [Example 16, 7-(4-methyl-1H-imidazol-1-yl)-2-{[(1aR,6bR)-1a-methyl-5-(trifluoromethyl)-1,1a-dihydro-6bH-cyclopropa[b][1]benzofuran-6b-yl]methyl}-3,4-dihydro-2H-pyrido[1,2-a]pyrazine-1,6-dione], the half-inhibitory concentration (IC50) is 47.3 nM.
Same read-out and setting: the figure for `Cc1ncn(-c2ccc3n(c2=O)CCN(C[C@]24C[C@@]2(C)Oc2cc(F)c(OC(F)(F)F)cc24)C3=O)n1` (single isomer, unassigned) [Example 9] is 519 nM.
As to `Cc1cn(-c2ccc3n(c2=O)CCN(C[C@]24C[C@@]2(C)Oc2cc(F)c(C(F)(F)F)cc24)C3=O)cn1` (single isomer, unassigned) [Example 18], the 50% inhibitory concentration (IC50) turned out to be 20.2 nM.
`Cc1cn(-c2ccc3n(c2=O)CCN(C[C@]24C[C@@]2(C)Oc2cc(F)c(OC(F)F)cc24)C3=O)cn1` (single isomer, unassigned) [Example 13]: the concentration for half-maximal inhibition (IC50) was 84.9 nM.
On the same count and under the same terms, the figure for `Cc1cn(-c2ccc3n(c2=O)CCN(C[C@@]24C[C@]2(C)Oc2ccc(OC(F)(F)F)cc24)C3=O)cn1` (single isomer, unassigned) [Example 2] is 6.5 nM.
For `Cc1cn(-c2ccc3n(c2=O)CCN(C[C@@]24C[C@]2(C)Oc2c(Cl)cc(C(F)(F)F)cc24)C3=O)cn1` (single isomer, unassigned) [Example 21], the IC50 worked out at 16 nM.
On the same count and under the same terms, then `Cc1cn(-c2ccc3n(c2=O)CCN(C[C@]24C[C@@]2(C)Oc2cc(F)c(OC(F)(F)F)cc24)C3=O)cn1` (single isomer, unassigned) [Example 7], with 38 nM; and `Cc1cn(-c2ccc3n(c2=O)CCN(C[C@]24C[C@@]2(C)Oc2cc(Cl)c(C(F)(F)F)cc24)C3=O)cn1` (single isomer, unassigned) [Example 11], with 10 nM; and `Cc1cn(-c2ccc3n(c2=O)CCN(CC24CC2(C)Oc2cc(F)c(OC(F)(F)F)cc24)C3=O)cn1` (stereo not drawn) [Example C40, 2-{[4-fluoro-1a-methyl-5-(trifluoromethoxy)-1,1a-dihydro-6bH-cyclopropa[b][1]benzofuran-6b-yl]methyl}-7-(4-methyl-1H-imidazol-1-yl)-3,4-dihydro-2H-pyrido[1,2-a]pyrazine-1,6-dione], with 11.2 nM.
On to `Cc1cn(-c2ccc3n(c2=O)CCN(C[C@@]24C[C@]2(C)Oc2c(F)cc(C(F)(F)F)cc24)C3=O)cn1` (single isomer, unassigned) [Example 19], for which the IC50 came out at 11.1 nM.
As to `Cc1cn(-c2ccc3n(c2=O)CCN(C[C@@]24C[C@]2(C)Oc2cc(F)c(OC(F)F)cc24)C3=O)cn1` (single isomer, unassigned) [Example 12], the concentration for half-maximal inhibition (IC50) came out at 17.8 nM.
Turning to `Cc1cn(-c2ccc3n(c2=O)CCN(C[C@]24C[C@@]2(C)Oc2c(F)cc(OC(F)(F)F)cc24)C3=O)cn1` (single isomer, unassigned) [Example 5], the half-inhibitory concentration (IC50) turned out to be 59.2 nM.
Still for that read-out and setting: then `Cc1ncn(-c2ccc3n(c2=O)CCN(C[C@@]24C[C@]2(C)Oc2cc(F)c(OC(F)(F)F)cc24)C3=O)n1` (single isomer, unassigned) [Example 8], with 36.6 nM; and `Cc1cn(-c2ccc3n(c2=O)CCN(CC24CC2(C)Oc2ccc(OC(F)(F)F)cc24)C3=O)cn1` (stereo not drawn) [Example C22, 7-(4-methyl-1H-imidazol-1-yl)-2-{[1a-methyl-5-(trifluoromethoxy)-1,1a-dihydro-6bH-cyclopropa[b][1]benzofuran-6b-yl]methyl}-3,4-dihydro-2H-pyrido[1,2-a]pyrazine-1,6-dione], with 19.5 nM.
On the same count and under the same terms, the figure for `Cc1cn(-c2ccc3n(c2=O)CCN(C[C@@]24C[C@]2(C)Oc2cc(F)c(C(F)(F)F)cc24)C3=O)cn1` (single isomer, unassigned) [Example 17] is 4.4 nM; for `Cc1cn(-c2ccc3n(c2=O)CCN(C[C@]24C[C@@]2(C)Oc2c(F)cc(C(F)(F)F)cc24)C3=O)cn1` (single isomer, unassigned) [Example 20] it is 50.1 nM; for `C[C@]12C[C@@]1(CN1CCn3c(ccc(-n4cnc(CO)c4)c3=O)C1=O)c1cc(OC(F)(F)F)c(F)cc1O2` [Example 14, 2-{[(1aS,6bS)-4-fluoro-1a-methyl-5-(trifluoromethoxy)-1,1a-dihydro-6bH-cyclopropa[b][1]benzofuran-6b-yl]methyl}-7-[4-(hydroxymethyl)-1H-imidazol-1-yl]-3,4-dihydro-2H-pyrido[1,2-a]pyrazine-1,6-dione] it is 18.7 nM.
With `Cc1cn(-c2ccc3n(c2=O)CCN(C[C@@]24C[C@]2(C)Oc2cc(F)c(OC(F)(F)F)cc24)C3=O)cn1` (single isomer, unassigned) [Example 6], the IC50 was 7 nM.
As for `Cc1cn(-c2ccc3n(c2=O)CCN(C[C@]24C[C@@]2(C)Oc2c(Cl)cc(C(F)(F)F)cc24)C3=O)cn1` (single isomer, unassigned) [Example 22], the IC50 amounted to 58.3 nM.
As for `Cc1cn(-c2ccc3n(c2=O)CCN(C[C@@]24C[C@]2(C)Oc2cc(Cl)c(C(F)(F)F)cc24)C3=O)cn1` (single isomer, unassigned) [Example 10], the IC50 came out at 3 nM.
As for `Cc1cn(-c2ccc3n(c2=O)CCN(CC24CC2Oc2ccc(C(F)(F)F)cc24)C3=O)cn1` (stereo not drawn) [Example 1, 7-(4-Methyl-1H-imidazol-1-yl)-2-{[5-(trifluoromethyl)-1,1a-dihydro-6bH-cyclopropa[b][1]benzofuran-6b-yl]methyl}-3,4-dihydro-2H-pyrido[1,2-a]pyrazine-1,6-dione], the IC50 turned out to be 48.5 nM.
The same measure, in the same setting: the figure for `Cc1cn(-c2ccc3n(c2=O)CCN(C[C@]24C[C@@]2(C)Oc2ccc(OC(F)(F)F)cc24)C3=O)cn1` (single isomer, unassigned) [Example 3] is 59.2 nM; for `Cc1cn(-c2ccc3n(c2=O)CCN(C[C@@]24C[C@]2(C)Oc2c(F)cc(OC(F)(F)F)cc24)C3=O)cn1` (single isomer, unassigned) [Example 4] it is 4.9 nM.
The same measure, in the same setting: then `Cc1cn(-c2ccc3n(c2=O)CCN(C[C@@]24C[C@]2(C)Oc2ccc(C(F)(F)F)cc24)C3=O)cn1` [Example 15, 7-(4-methyl-1H-imidazol-1-yl)-2-{[(1aS,6bS)-1a-methyl-5-(trifluoromethyl)-1,1a-dihydro-6bH-cyclopropa[b][1]benzofuran-6b-yl]methyl}-3,4-dihydro-2H-pyrido[1,2-a]pyrazine-1,6-dione], with 8.5 nM; and `Cc1cn(-c2ccc3n(c2=O)CCN(CC24CC2(C)Oc2c(F)cc(OC(F)(F)F)cc24)C3=O)cn1` (racemic) [Example C33, 2-{[3-fluoro-1a-methyl-5-(trifluoromethoxy)-1,1a-dihydro-6bH-cyclopropa[b][1]benzofuran-6b-yl]methyl}-7-(4-methyl-1H-imidazol-1-yl)-3,4-dihydro-2H-pyrido[1,2-a]pyrazine-1,6-dione], with 9.3 nM.
Still for that read-out and setting: then `Cc1ncn(-c2ccc3n(c2=O)CCN(CC24CC2(C)Oc2cc(F)c(OC(F)(F)F)cc24)C3=O)n1` (stereo not drawn) [Example C44, 2-{[4-fluoro-1a-methyl-5-(trifluoromethoxy)-1,1a-dihydro-6bH-cyclopropa[b][1]benzofuran-6b-yl]methyl}-7-(3-methyl-1H-1,2,4-triazol-1-yl)-3,4-dihydro-2H-pyrido[1,2-a]pyrazine-1,6-dione], with 68.9 nM.
